From patent US10722464B2, “Compositions for delivery of drug combinations” (priority 2001, dated 2020) come the findings set out here.

This data set can be described thus: in vivo. The note with it: SCID/rag2, mouse, plasma, iv, 10 mg/kg.

For `CCC1=C[C@@H]2CN(C1)Cc1c([nH]c3ccccc13)[C@@](C(=O)OC)(c1cc3c(cc1OC)N(C)[C@H]1[C@@](O)(C(=O)OC)[C@H](OC(C)=O)[C@]4(CC)C=CCN5CC[C@]31[C@@H]54)C2` [free vinorelbine, vinorelbine], the AUC – broadly, concentration integrated over time – stood at 112 ng·h/mL.
